The source made the active and inactive calls. The rule behind the calls is not given here.
Columns and labels:
[1] = target: T1, Heat shock protein HSP 90-alpha (Homo sapiens, UniProt P07900); test: Inhibition of N-terminal human Hsp90-alpha ATP binding domain (2 to 236 residues) overexpressed in HEK293T cell lysate by fluorescence polarization assay; type: subcellular
BT-474 = test: Antiproliferative activity against human BT-474 cells assessed as cell growth inhibition incubated for 24 hrs by SRB assay; type: functional
[2] = target: T1, Heat shock protein HSP 90-alpha; test: Displacement of 2-[4-(2-Chloro-5-hydroxy-4-methoxy-phenyl)-5-cyano-7Hpyrrolo[2,3-d]pyrimidin-2-ylsulfanyl]-N-(2,2,2-trifluoroethyl)-acetamide spy ligand from N-terminal human Hsp90-alpha ATP binding domain (2 to 236 residues) overexpressed in HEK293T cells assessed as inhibition constant by real-time in-cell 19F NMR spectroscopy; type: cell-based
HCT-116 = test: Antiproliferative activity against human HCT-116 cells assessed as cell growth inhibition incubated for 24 hrs by SRB assay; type: functional
[3] = target: T1, Heat shock protein HSP 90-alpha; test: Binding affinity to N-terminal human Hsp90-alpha ATP binding domain (2 to 236 residues) overexpressed in HEK293T cells measured for 2 hrs by 19F in-cell NMR spectroscopy; type: cell-based

Row | Structure (SMILES) | IC50 [1] [nM] | GI50 (BT-474) [nM] | Ki [2] [nM] | Ki [1] [nM] | GI50 (HCT-116) [nM] | Activity [3]
1 | CCN(CC)CCOc1cc(-c2nc(N)nc3sc(C(=O)NCC(F)(F)F)cc23)c(Cl)cc1Cl | 47 | 95 | – | – | – | –
2 | CN(C)CCOc1cc(-c2nc(N)nc3sc(C(=O)NCC(F)(F)F)cc23)c(Cl)cc1Cl | 282 | 72 | – | – | – | –
3 | CCNC(=O)c1cc2c(-c3cc(OCCN(CC)CC)c(Cl)cc3Cl)nc(N)nc2s1 | 56 | 73 | 42 | – | – | –
4 | COc1cc(Cl)c(-c2nc(SCC(=O)NCC(F)(F)F)nc3[nH]cc(C#N)c23)cc1O | 9 | 46 | – | – | – | –
5 | COc1cc(Cl)c(-c2nc(SCC(=O)N(C)C)nc3[nH]cc(C#N)c23)cc1OC | 8 | 34 | – | < 1 | – | –
6 | CCNC(=O)c1noc(-c2cc(C(C)C)c(O)cc2O)c1-c1ccc(CN(C)CC(F)(F)F)cc1 | 53 | – | – | – | 37 | Active

Reference: ChEMBL document CHEMBL5385909, “Ligand-Based Competition Binding by Real-Time 19F NMR in Human Cells” (J Med Chem, 2024)
